Reference: patent publication US20250114460A1, “NOVEL PLK1 DEGRADATION INDUCING COMPOUND” (UPPTHERA, INC., priority 2021, published 2025)

Biological target: T1, PLK1 (Homo sapiens, UniProt P53350)
T1 construct: endogenous in cells; host or cells: HeLa LgBit (Plk1-HiBit KI): HeLa stably expressing LgBit, with a CRISPR/Cas9 knock-in of HiBit at the endogenous PLK1 locus
Experiment: Luciferase assay for PLK1 in HeLa LgBit (Plk1-HiBit KI) cell line
Assay type: cell-based
Conditions: 300 nM compound, luminescence after 9 hours
Method: 2. Luciferase Assay for PLK1
(1) Preparation and Culture of HeLa LgBit (Plk1-HiBit KI) Cell Line
A HeLa cell line in which the LgBit vector was transfected and expressed stably was prepared. Then, after constructing gRNA and donor to express the HiBit amino acid sequence behind the C-terminal of the Plk1 gene, which was inherent in the cell, it was inserted into the cell together with a vector capable of expressing CRISPR/Cas9. Only the cells in which the insertion was completed and knock-in had progressed were selected, sub-cultured and used.
(2) Treatment of Compounds of the Present Invention and Method of Luciferase Assay
In the case of HeLa LgBit (Plk1-HiBit KI), the compounds were treated after being released after thymidine block, and the process was as follows. Thymidine (Sigma-Aldrich Cat. No. T9250-5G) was completely dissolved in DW and used in the experiment. For thymidine block, the products were treated with 2 mM of thymidine and then incubated for 24 hours. For release and chemical treatment, the medium was suctioned and washed with 1×PBS. TrypLE™ was added and incubated in 37° C. CO2 incubator for 5 min. Cells neutralized by adding complete media were counted through a counter. For each well of a 96-well culture plate (SPL), 3.3×10^4 cells and a total medium volume of 150 μL were seeded and incubated in a CO2 incubator.
Each cell line was incubated in a CO2 incubator for 18 hours, and Endurazine was added to each well to make up 4% of the total volume. After adding the compound of the present invention in a 96-well white plate (SPL) to a concentration of 300 nM, the wavelength of the plate reader (BMG Labtech, CLARIOstar Plus) was set to […], and then the luminescence was tracked in real time.
In Table 2, Activity represents the ratio of the luminescense value of each Exemplary Compound treatment group to DMSO treatment group (+++: <0.3, ++<0.6, +<0.7).

T1 sequence (P53350 whole entry): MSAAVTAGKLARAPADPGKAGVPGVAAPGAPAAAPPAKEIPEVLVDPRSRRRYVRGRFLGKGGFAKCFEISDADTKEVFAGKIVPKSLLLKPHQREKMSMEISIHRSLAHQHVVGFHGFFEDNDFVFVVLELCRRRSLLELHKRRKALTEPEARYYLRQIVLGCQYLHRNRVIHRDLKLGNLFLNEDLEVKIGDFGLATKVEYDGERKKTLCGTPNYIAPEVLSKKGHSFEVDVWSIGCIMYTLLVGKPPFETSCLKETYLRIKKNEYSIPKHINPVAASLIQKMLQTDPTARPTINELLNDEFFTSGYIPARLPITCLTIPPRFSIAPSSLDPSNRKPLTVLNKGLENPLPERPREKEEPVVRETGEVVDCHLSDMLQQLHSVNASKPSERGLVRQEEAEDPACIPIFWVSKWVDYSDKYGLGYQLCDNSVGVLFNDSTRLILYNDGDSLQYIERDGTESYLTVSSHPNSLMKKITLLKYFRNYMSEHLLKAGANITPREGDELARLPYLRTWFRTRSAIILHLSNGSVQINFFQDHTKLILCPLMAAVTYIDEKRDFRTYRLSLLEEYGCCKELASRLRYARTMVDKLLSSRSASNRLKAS

SMILES | Activity: ratio of the luminescense value of each Exemplary Compound treatment group to DMSO treatment group
COc1cc(C(=O)N2CCC(CCCN3CCN(c4cccc5c4C(=O)N(C4CCC(=O)NC4=O)C5=O)CC3)CC2)ccc1Nc1ncc2c(n1)N(C1CCCC1)CC(F)(F)C(=O)N2C (stereo not shown) [Compound 95, 4-(4-(3-(1-(4-((9-cyclopentyl-7,7-difluoro-5-methyl-6-oxo-6,7,8,9-tetrahydro-5H-pyrimido[4,5-b][1,4]diazepin-2-yl)amino)-3-methoxybenzoyl)piperidin-4-yl)propyl)piperazin-1-yl)-2-(2,6-dioxopiperidin-3-yl)isoindoline-1,3-dione] | ++ (++<0.6)
COc1cc(C(=O)N2CCC(CCCCN3CCN(c4ccc5c(c4)C(=O)N(C4CCC(=O)NC4=O)C5=O)CC3)CC2)ccc1Nc1ncc2c(n1)N(C1CCCC1)CC(F)(F)C(=O)N2C (stereo not shown) [Compound 100, 5-(4-(4-(1-(4-((9-cyclopentyl-7,7-difluoro-5-methyl-6-oxo-6,7,8,9-tetrahydro-5H-pyrimido[4,5-b][1,4]diazepin-2-yl)amino)-3-methoxybenzoyl)piperidin-4-yl)butyl)piperazin-1-yl)-2-(2,6-dioxopiperidin-3-yl)isoindoline-1,3-dione] | ++ (++<0.6)
COc1cc(C(=O)NCCOCCOCCNc2cccc3c2C(=O)N(C2CCC(=O)NC2=O)C3=O)c(N2CCN(C)CC2)cc1Nc1ncc2c(n1)N(C1CCCC1)CC(F)(F)C(=O)N2C (stereo not shown) [Compound 222, 4-((9-cyclopentyl-7,7-difluoro-5-methyl-6-oxo-6,7,8,9-tetrahydro-5H-pyrimido[4,5-b][1,4]diazepin-2-yl)amino)-N-(2-(2-(2-((2-(2,6-dioxopiperidin-3-yl)-1,3-dioxoisoindolin-4-yl)amino)ethoxy)ethoxy)ethyl)-5-methoxy-2-(4-methylpiperazin-1-yl)benzamide] | ++ (++<0.6)
COc1cc(C(=O)NC2CCN(C[C@@H]3CCN(c4ccc5c(c4)C(=O)N(C4CCC(=O)NC4=O)C5=O)C3)CC2)ccc1Nc1ncc2c(n1)N(C1CCCC1)CC(F)(F)C(=O)N2C (stereo partly drawn) [Compound 48, 4-((9-cyclopentyl-7,7-difluoro-5-methyl-6-oxo-6,7,8,9-tetrahydro-5H-pyrimido[4,5-b][1,4]diazepin-2-yl)amino)-N-(1-(((3S)-1-(2-(2,6-dioxopiperidin-3-yl)-1,3-dioxoisoindolin-5-yl)pyrrolidin-3-yl)methyl)piperidin-4-yl)-3-methoxybenzamide] | + (+<0.7)
COc1cc(C(=O)NC2CCN(C(=O)CCCNc3ccc4c(c3)C(=O)N(C3CCC(=O)NC3=O)C4=O)CC2)c(F)cc1Nc1ncc2c(n1)N(C1CCCC1)CC(F)(F)C(=O)N2C (stereo not shown) [Compound 35, 4-((9-cyclopentyl-7,7-difluoro-5-methyl-6-oxo-6,7,8,9-tetrahydro-5H-pyrimido[4,5-b][1,4]diazepin-2-yl)amino)-N-(1-(4-((2-(2,6-dioxopiperidin-3-yl)-1,3-dioxoisoindolin-5-yl)amino)butanoyl)piperidin-4-yl)-2-fluoro-5-methoxybenzamide] | + (+<0.7)
COc1cc(C(=O)NC2CCN(C(=O)CC[C@H]3CN(Cc4cccc5c4C(=O)N(C4CCC(=O)NC4=O)C5=O)CCO3)CC2)ccc1Nc1ncc2c(n1)N(C1CCCC1)CC(F)(F)C(=O)N2C (stereo partly drawn) [Compound 174, 4-((9-cyclopentyl-7,7-difluoro-5-methyl-6-oxo-6,7,8,9-tetrahydro-5H-pyrimido[4,5-b][1,4]diazepin-2-yl)amino)-N-(1-(3-((2S)-4-((2-(2,6-dioxopiperidin-3-yl)-1,3-dioxoisoindolin-4-yl)methyl)morpholin-2-yl)propanoyl)piperidin-4-yl)-3-methoxybenzamide] | ++ (++<0.6)
COc1cc(C(=O)NCCOCCOCCOCCNc2cccc3c2C(=O)N(C2CCC(=O)NC2=O)C3=O)c(N2CCN(C)CC2)cc1Nc1ncc2c(n1)N(C1CCCC1)CC(F)(F)C(=O)N2C (stereo not shown) [Compound 223, 4-((9-cyclopentyl-7,7-difluoro-5-methyl-6-oxo-6,7,8,9-tetrahydro-5H-pyrimido[4,5-b][1,4]diazepin-2-yl)amino)-N-(2-(2-(2-(2-((2-(2,6-dioxopiperidin-3-yl)-1,3-dioxoisoindolin-4-yl)amino)ethoxy)ethoxy)ethoxy)ethyl)-5-methoxy-2-(4-methylpiperazin-1-yl)benzamide] | ++ (++<0.6)
COc1cc(C(=O)N[C@H]2CC[C@H](N3CCN(CCNc4cccc5c4C(=O)N(C4CCC(=O)NC4=O)C5=O)CC3)CC2)c(F)cc1Nc1ncc2c(n1)N(C1CCCC1)CC(F)(F)C(=O)N2C (stereo partly shown) [Compound 196, 4-((9-cyclopentyl-7,7-difluoro-5-methyl-6-oxo-6,7,8,9-tetrahydro-5H-pyrimido[4,5-b][1,4]diazepin-2-yl)amino)-N-((1r,4r)-4-(4-(2-((2-(2,6-dioxopiperidin-3-yl)-1,3-dioxoisoindolin-4-yl)amino)ethyl)piperazin-1-yl)cyclohexyl)-2-fluoro-5-methoxybenzamide] | ++ (++<0.6)
COc1cc(C(=O)NC2CCN(C(=O)COC3CN(c4cccc5c4C(=O)N(C4CCC(=O)NC4=O)C5=O)C3)CC2)ccc1Nc1ncc2c(n1)N(C1CCCC1)CC(F)(F)C(=O)N2C (stereo not shown) [Compound 80, 4-((9-cyclopentyl-7,7-difluoro-5-methyl-6-oxo-6,7,8,9-tetrahydro-5H-pyrimido[4,5-b][1,4]diazepin-2-yl)amino)-N-(1-(2-((1-(2-(2,6-dioxopiperidin-3-yl)-1,3-dioxoisoindolin-4-yl)azetidin-3-yl)oxy)acetyl)piperidin-4-yl)-3-methoxybenzamide] | ++ (++<0.6)
COc1cc(C(=O)N[C@H]2CC[C@@H](N(C)CCCNc3cccc4c3C(=O)N(C3CCC(=O)NC3=O)C4=O)CC2)ccc1Nc1ncc2c(n1)N(C1CCCC1)CC(F)(F)C(=O)N2C (stereo partly shown) [Compound 16, 4-((9-cyclopentyl-7,7-difluoro-5-methyl-6-oxo-6,7,8,9-tetrahydro-5H-pyrimido[4,5-b][1,4]diazepin-2-yl)amino)-N-((1s,4s)-4-((3-((2-(2,6-dioxopiperidin-3-yl)-1,3-dioxoisoindolin-4-yl)amino)propyl)(methyl)amino)cyclohexyl)-3-methoxybenzamide] | + (+<0.7)
COc1cc(C(=O)N2CCN(CCCCN3CCN(c4cccc5c4C(=O)N(C4CCC(=O)NC4=O)C5=O)CC3)CC2)ccc1Nc1ncc2c(n1)N(C1CCCC1)CC(F)(F)C(=O)N2C (stereo not shown) [Compound 88, 4-(4-(4-(4-(4-((9-cyclopentyl-7,7-difluoro-5-methyl-6-oxo-6,7,8,9-tetrahydro-5H-pyrimido[4,5-b][1,4]diazepin-2-yl)amino)-3-methoxybenzoyl)piperazin-1-yl)butyl)piperazin-1-yl)-2-(2,6-dioxopiperidin-3-yl)isoindoline-1,3-dione] | ++ (++<0.6)
CN1C(=O)C(F)(F)CN(C2CCCC2)c2nc(Nc3ccc(C(=O)NC4CCN(C(=O)CCCNc5cccc6c5C(=O)N(C5CCC(=O)NC5=O)C6=O)CC4)cc3F)ncc21 (stereo not shown) [Compound 27, 4-((9-cyclopentyl-7,7-difluoro-5-methyl-6-oxo-6,7,8,9-tetrahydro-5H-pyrimido[4,5-b][1,4]diazepin-2-yl)amino)-N-(1-(4-((2-(2,6-dioxopiperidin-3-yl)-1,3-dioxoisoindolin-4-yl)amino)butanoyl)piperidin-4-yl)-3-fluorobenzamide] | ++ (++<0.6)
COc1cc(C(=O)NC2CCN(CC3CCN(c4cccc5c4C(=O)N(C4CCC(=O)NC4=O)C5=O)C3)CC2)ccc1Nc1ncc2c(n1)N(C1CCCC1)CC(F)(F)C(=O)N2C (stereo not shown) [Compound 46, 4-((9-cyclopentyl-7,7-difluoro-5-methyl-6-oxo-6,7,8,9-tetrahydro-5H-pyrimido[4,5-b][1,4]diazepin-2-yl)amino)-N-(1-((1-(2-(2,6-dioxopiperidin-3-yl)-1,3-dioxoisoindolin-4-yl)pyrrolidin-3-yl)methyl)piperidin-4-yl)-3-methoxybenzamide] | ++ (++<0.6)
